Patent US20060147923A1, “Nucleic acid sequences encoding novel point mutations on mglur2 and mglur3” (priority 2002, published 2006)

Target: T1, wild type mGluR2 (Homo sapiens, UniProt Q14416)
T1 construct: expressed in transfected cells; host or cells: HEK293 cells, transient lipid transfection (Effectene, MAGEC plate protocol)
Test: Phosphoinositide hydrolysis, wild-type mGluR2 (FIG. 1)
Format: cell-based
Conditions: HEK-293 cells transfected with wild-type mGluR2; 5 uM glutamate; normalized to 1 mM glutamate control
Source text: For mGluR2 and mGluR3 mutants, the mGluR2/Gα16 nucleic acids are mixed with a lipid-based transfection reagent and are deposited into a well of a multi-well plate coated with fibronectin. The resulting DNA/lipid complexes are subsequently dried in vacuo then seeded with HEK293 cells. This is based on a method designated as MAGECTM, and disclosed in U.S. Provisional Application No. 60/372,476, filed Apr. 15, 2002, and titled, “Matrix Analyses of Gene Expression in Cells.”
11. Approximately forty hours after plating, the cells are analyzed in the phosphoinositide hydrolysis assay.
Phosphoinositide hydrolysis was determined by measuring the accumulation of tritiated inositol monophosphate ([^3H]-IP1) in the presence of LiCl. The method is taken from Berridge: Biochem J (1983) 212: 849-58. This determination provides for comparative data on the level of potentiation and loss of potentiation when testing a purported or known allosteric modulator in the presence of glutamate and either a wild-type mGluR2 or mGluR3 and at least one mutant of the respective mGluR2 or mGluR3.
1. HEK293 cells that were previously transiently transfected with hmGluR2 and Gα16 were labeled overnight with 1 μCi/well myo-[2-^3H]-inositol in a […] DMEM medium.
2. […]
12. The sample was quantified in a scintillation counter after a two-hour waiting period. […]

T1 sequence (Q14416 19-872): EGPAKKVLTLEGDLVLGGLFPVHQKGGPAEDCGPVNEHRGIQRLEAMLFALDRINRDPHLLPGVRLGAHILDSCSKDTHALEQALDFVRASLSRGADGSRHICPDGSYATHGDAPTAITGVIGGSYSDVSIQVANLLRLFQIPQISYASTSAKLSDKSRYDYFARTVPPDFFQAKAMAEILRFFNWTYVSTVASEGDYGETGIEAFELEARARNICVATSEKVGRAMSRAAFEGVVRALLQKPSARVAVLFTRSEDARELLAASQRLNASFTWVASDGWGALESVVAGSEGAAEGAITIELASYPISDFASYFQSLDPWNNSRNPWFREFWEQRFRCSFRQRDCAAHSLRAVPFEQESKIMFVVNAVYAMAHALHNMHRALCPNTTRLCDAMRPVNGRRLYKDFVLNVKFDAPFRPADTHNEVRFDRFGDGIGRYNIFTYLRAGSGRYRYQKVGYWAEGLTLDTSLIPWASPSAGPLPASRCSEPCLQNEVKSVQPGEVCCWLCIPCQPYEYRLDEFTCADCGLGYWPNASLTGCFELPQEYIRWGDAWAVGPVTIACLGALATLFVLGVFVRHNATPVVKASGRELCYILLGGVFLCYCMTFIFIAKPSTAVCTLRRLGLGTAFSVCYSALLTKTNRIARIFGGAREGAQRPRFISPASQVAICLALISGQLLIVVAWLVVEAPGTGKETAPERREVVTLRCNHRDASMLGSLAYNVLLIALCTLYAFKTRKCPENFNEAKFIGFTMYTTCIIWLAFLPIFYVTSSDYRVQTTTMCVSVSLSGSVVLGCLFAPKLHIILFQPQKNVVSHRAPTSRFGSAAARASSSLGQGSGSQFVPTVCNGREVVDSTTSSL

effect of modulator on response to glutamate, percent response compared to 1 mM glutamate positive control: up-regulating the response of mGluR2
SMILES: COc1ccccc1Oc1cccc(N(Cc2cccnc2)S(=O)(=O)CC(F)(F)F)c1 [Compound A]
